What follows are compounds tested on HCT116 colon cancer cells (assay: KSP Cellular Assay (percent of cells staining positive for Phos-Histone H3 / Phos-MPM2)). Conditions: Homo sapiens, HCT-116, 16 h, Table 101; HCT116 cells, 16 hours with drug; read-out: ED50 (nM) Range.
Assay type: cell-based
Description: HCT116 colon cancer cells were grown in DMEM:F12 media with 10% heat inactivated FBS at 37 degrees with 5% CO2. Cells were plated at 7,500 cells per well in PDL coated 384-well tissue culture plates. 6 hours later media was removed and new media containing drug was added. Cells were incubated with drug for 16 hours. All further steps were performed at room temperature in the dark. Cells were fixed with 25 ul/well Prefer fixation solution plus 250 nM Hoechst dye and incubated for 30 minutes. The fixation solution was removed and cells were washed with PBS. Cells were then permeabilized with 25 ul/well 0.2% Triton-X in PBS and incubated for 10 minutes. Cells were washed with PBS and then incubated with 25 ul/well PBS containing 3% FBS for 30 minutes. Cells were then stained overnight at 4 degrees with 25 ul/well antibody solution in PBS plus 3% FBS. Antibodies used were Phos-Histone H3 (ser10)-Alexa Flur 488 Conjugate and Phos-MPM2 Texas Red Conjugate. Cells were washed with PBS and then immunofluorescence images captured with HT Pathway microscope. The percent of cells staining positive was calculated and EC50 values for the compounds of the invention that were tested were determined using Excel XLfit.
EC50 Determinations: Dose-response curves were plotted from inhibition data generated each in duplicate, from 8 point serial dilutions of inhibitory compounds. Concentration of compound was plotted against enzyme activity (OD reading). To generate EC50 values, the dose-response curves were then fitted to a standard sigmoidal curve and EC50 values were derived by nonlinear regression analysis.

| SMILES | EC50 |
| --- | --- |
| CC(=O)N1N=C(c2cc(F)ccc2F)SC12CCOc1ccc(F)cc12 (stereo not shown) [compound 116] | ≤ 500 nM |
| CC(=O)N1N=C(c2cc(F)ccc2F)S[C@@]12CCc1ccccc12 [compound 118] | ≤ 500 nM |
| CC(=O)N1N=C(c2cc(F)ccc2F)SC12CCCCc1ccccc12 (stereo not shown) [compound 122] | > 1000 nM |
| CC(=O)N1N=C(c2cc(F)ccc2F)SC12CCN(C(C)=S)c1ccccc12 (stereo not shown) [compound 114] | > 1000 nM |
| CC(=O)N1N=C(c2cc(F)ccc2F)SC12CCNc1ccccc12 (stereo not shown) [compound 110] | ≤ 500 nM |

Same assay, conditions: Homo sapiens, HCT-116, 16 h, Table 401; HCT116 cells, 16 hours with drug; read-out: ED50 (nM) Range

| SMILES | EC50 |
| --- | --- |
| O=C(CCCN1CCCCC1)N1N=C(c2cc(F)ccc2F)SC12CCc1ccccc12 (stereo not shown) [compound 456] | ≤ 500 nM |
| O=C(C1CCCNC1)N1N=C(c2cc(F)ccc2F)SC12CCCc1ccccc12 (stereo not shown) [compound 416] | > 1000 nM |
| O=C(CCCN1CCOCC1)N1N=C(c2cc(F)ccc2F)SC12CCc1ccccc12 (stereo not shown) [compound 457] | ≤ 500 nM |
| O=C(Cc1cccnc1)N1N=C(c2cc(F)ccc2F)SC12CCc1ccccc12 (stereo not shown) [compound 450] | 500 to 1000 nM |
| CN1CCC(C(=O)N2N=C(c3cc(F)ccc3F)SC23CCc2ccccc23)CC1 (stereo not shown) [compound 421] | > 1000 nM |
| O=C([C@@H]1CCCN1)N1N=C(c2cc(F)ccc2F)SC12CCCc1ccsc12 (stereo partly shown) [compound 427] | > 1000 nM |
| N[C@H](C(=O)N1N=C(c2cc(F)ccc2F)SC12CCCc1sccc12)C1CC1 (stereo partly shown) [compound 417] | > 1000 nM |
| O=C(CC1CCNC1)N1N=C(c2cc(F)ccc2F)SC12CCc1ccccc12 (stereo not shown) [compound 451] | ≤ 500 nM |

Next, values leading:

| EC50 | SMILES |
| --- | --- |
| ≤ 500 nM | CC(N)CCC(=O)N1N=C(c2cc(F)ccc2F)SC12CCc1ccccc12 (stereo not shown) [compound 452] |
| > 1000 nM | O=C(C1CCCCN1)N1N=C(c2cc(F)ccc2F)SC12CCOc1ccccc12 (stereo not shown) [compound 404] |
| > 1000 nM | O=C(C1CCNCC1)N1N=C(c2cc(F)ccc2F)SC12CCc1ccccc12 (stereo not shown) [compound 422] |
| ≤ 500 nM | C[C@H](O)C(=O)N1N=C(c2cc(F)ccc2F)SC12CCc1ccccc12 (stereo partly shown) [compound 436] |
| > 1000 nM | O=C(c1ccncc1)N1N=C(c2cc(F)ccc2F)SC12CCOc1ccccc12 (stereo not shown) [compound 474] |
| > 500 nM | N[C@H]1CCC[C@@H](C(=O)N2N=C(c3cc(F)ccc3F)SC23CCOc2ccccc23)C1 (stereo partly shown) [compound 479] |
| ≤ 500 nM | CN(C)CCCC(=O)N1N=C(c2cc(F)ccc2F)SC12CCOc1ccccc12 (stereo not shown) [compound 475] |
| ≤ 500 nM | O=C(CC1CNC1)N1N=C(c2cc(F)ccc2F)SC12CCc1ccccc12 (stereo not shown) [compound 460] |
| ≤ 500 nM | O=C(CCC1CCCNC1)N1N=C(c2cc(F)ccc2F)SC12CCOc1ccccc12 (stereo not shown) [compound 482] |
| 500 to 1000 nM | O=C(CCC1CCCCN1)N1N=C(c2cc(F)ccc2F)SC12CCOc1ccccc12 (stereo not shown) [compound 497] |
| > 1000 nM | CC(C)CC(=O)N1N=C(c2cc(F)ccc2F)SC12CCOc1ccccc12 (stereo not shown) [compound 468] |
| > 1000 nM | O=C(C1CCNCC1)N1N=C(c2cc(F)ccc2F)SC12CCOc1ccccc12 (stereo not shown) [compound 408] |
| ≤ 500 nM | O=C(CC1CCNC1)N1N=C(c2cc(F)ccc2F)SC12CCOc1ccccc12 (stereo not shown) [compound 496] |

Same assay, conditions: Homo sapiens, HCT-116, 16 h, Table 701; HCT116 cells, 16 hours with drug; read-out: EC50 (nM) Range

| SMILES | EC50 |
| --- | --- |
| COCCN1N=C(c2cc(F)ccc2F)SC12CCOc1ccccc12 (stereo not shown) [compound 704] | > 1000 nM |

Same assay, conditions: Homo sapiens, HCT-116, 16 h, Table 801; HCT116 cells, 16 hours with drug; read-out: EC50 (nM) Range

| SMILES | EC50 |
| --- | --- |
| CC(=O)N1N=C(c2cc(F)ccc2F)S[C@]12c1cccc(F)c1OC[C@@H]2CCN [compound 810] | > 1000 nM |
| CC(=O)N1N=C(c2cc(F)ccc2F)S[C@@]12c1cc(Cl)ccc1OC[C@H]2CCN [compound 811] | ≤ 500 nM |
| CC(=O)N1N=C(c2cc(F)ccc2F)S[C@]12c1cc(Cl)ccc1OC[C@@H]2CCN [compound 812] | > 1000 nM |
| CC(=O)N1N=C(c2cc(F)ccc2F)S[C@@]12c1ccccc1OC[C@H]2CCNO [compound 813] | ≤ 500 nM |
| CC(=O)N1N=C(c2cc(F)ccc2F)S[C@]12c1cc(F)c(F)cc1OC[C@@H]2CCN [compound 808] | > 1000 nM |
| CC(=O)N1N=C(c2cc(F)ccc2F)S[C@]12c1ccccc1OC[C@@H]2CCN [compound 816] | > 1000 nM |
| CC(=O)N1N=C(c2cc(F)ccc2F)S[C@@]12c1cc(F)ccc1OC[C@H]2CCN [compound 801] | ≤ 500 nM |

Same assay, conditions: Homo sapiens, HCT-116, 16 h, Table 1201 (Example 1201); HCT116 cells, 16 hours with drug; read-out: EC50 (nM) Range

| SMILES | EC50 |
| --- | --- |
| CC(=O)N1N=C(c2cc(F)ccc2F)S[C@@]12c1ccccc1OC[C@H]2CCN1CCOCC1 (single isomer, unassigned) [compound 1201] | ≤ 500 nM |

Same assay, conditions: Homo sapiens, HCT-116, 16 h, table of Example 901; HCT116 cells, 16 hours with drug; read-out: EC50 (nM) Range

| SMILES | EC50 |
| --- | --- |
| CC(=O)N1N=C(c2cc(F)ccc2F)S[C@]12c1ccccc1OC[C@@H]2CC#N [compound 905] | > 1000 nM |
| CC(=O)N1N=C(c2cc(F)ccc2F)S[C@]12c1ccccc1OC[C@H]2CC#N [compound 904] | 500 to 1000 nM |

Same assay, conditions: Homo sapiens, HCT-116, 16 h, table of Example 1004; HCT116 cells, 16 hours with drug; read-out: EC50 (nM) Range

| SMILES | EC50 |
| --- | --- |
| CC(=O)N1N=C(c2cc(F)ccc2F)S[C@]12c1ccccc1OC[C@@H]2CCCN [compound 1005] | > 500 nM |

Same assay, conditions: Homo sapiens, HCT-116, 16 h, table of Example 1801 (headed Table 1201); HCT116 cells, 16 hours with drug; read-out: EC50 (nM) Range

| SMILES | EC50 |
| --- | --- |
| CC(=O)N1N=C(c2ccc(F)cc2F)S[C@]12c1ccccc1OC[C@@H]2CCN [compound 1816] | > 1000 nM |
| CC(=O)N1N=C(c2cc(F)cc(F)c2)S[C@]12c1ccccc1OC[C@@H]2CCN [compound 1818] | > 1000 nM |
| CC(=O)N1N=C(c2cc(Cl)ccc2F)S[C@@]12c1ccccc1OC[C@H]2CCN [compound 1803] | ≤ 500 nM |
| CC(=O)N1N=C(c2cccc(C(F)(F)F)c2)S[C@@]12c1ccccc1OC[C@H]2CCN [compound 1814] | ≤ 500 nM |

Same assay, conditions: Homo sapiens, HCT-116, 16 h, table of Example 1901; HCT116 cells, 16 hours with drug; read-out: EC50 (nM) Range

| SMILES | EC50 |
| --- | --- |
| COCCOCC(=O)N1N=C(c2cc(F)ccc2F)S[C@]12c1ccccc1OC[C@@H]2CCN [compound 1910] | > 1000 nM |
| COCCOCC(=O)N1N=C(c2cc(F)ccc2F)S[C@@]12c1ccccc1OC[C@H]2CCN [compound 1909] | ≤ 500 nM |
| CO[C@@H](C)C(=O)N1N=C(c2cc(F)ccc2F)S[C@@]12c1cc(F)cc(F)c1OC[C@H]2CCN [compound 1907] | ≤ 500 nM |
| COCCOCC(=O)N1N=C(c2cc(F)ccc2F)S[C@]12c1cc(F)cc(F)c1OC[C@@H]2CCN [compound 1912] | > 1000 nM |

Next, values leading:

| EC50 | SMILES |
| --- | --- |
| > 1000 nM | COCCOCC(=O)N1N=C(c2cc(F)ccc2F)S[C@]12c1cc(F)ccc1OC[C@@H]2CCN [compound 1905] |
| ≤ 500 nM | CO[C@@H](C)C(=O)N1N=C(c2cc(F)ccc2F)S[C@@]12c1cc(F)ccc1OC[C@H]2CCN [compound 1902] |

Same assay, conditions: Homo sapiens, HCT-116, 16 h, table of Example 2001; HCT116 cells, 16 hours with drug; read-out: EC50 (nM) Range

| SMILES | EC50 |
| --- | --- |
| CO[C@@H](C)C(=O)N1N=C(c2cc(F)ccc2F)S[C@@]12c1ccccc1OC[C@H]2CCN [compound 2008] | ≤ 500 nM |
| COCC(=O)N1N=C(c2cc(F)ccc2F)S[C@@]12c1ccccc1OC[C@H]2CCN [compound 2004] | ≤ 500 nM |
| NCC[C@H]1COc2ccccc2[C@]12SC(c1cc(F)ccc1F)=NN2C(=O)C(F)F [compound 2005] | ≤ 500 nM |
| CO[C@@H](C)C(=O)N1N=C(c2cc(F)ccc2F)S[C@]12c1ccccc1OC[C@@H]2CCN [compound 2007] | ≤ 500 nM |

Same assay, conditions: Homo sapiens, HCT-116, 16 h, table of Example 2201; HCT116 cells, 16 hours with drug; read-out: EC50 (nM) Range

| SMILES | EC50 |
| --- | --- |
| CN(C)C(=O)N1N=C(c2cc(F)ccc2F)S[C@]12c1cc(F)ccc1OC[C@@H]2CCN [compound 2202] | > 1000 nM |
| NCC[C@H]1COc2ccccc2[C@]12SC(c1cc(F)ccc1F)=NN2C(=O)N1CCOCC1 [compound 2206] | > 1000 nM |

Same assay, conditions: Homo sapiens, HCT-116, 16 h, table of Example 2501; HCT116 cells, 16 hours with drug; read-out: EC50 (nM) Range

| SMILES | EC50 |
| --- | --- |
| CC(=O)N1N=C(c2cc(F)ccc2F)S[C@@]12c1ccccc1NC[C@H]2CCO [compound 2502] | ≤ 500 nM |

Same assay, conditions: Homo sapiens, HCT-116, 16 h, table of Example 2701; HCT116 cells, 16 hours with drug; read-out: EC50 (nM) Range

| SMILES | EC50 |
| --- | --- |
| CC(=O)NCC[C@H]1CNc2ccccc2[C@]12SC(c1cc(F)ccc1F)=NN2C(C)=O [compound 2702] | 500 to 1000 nM |

Same assay, conditions: Homo sapiens, HCT-116, 16 h, table of Example 2901; HCT116 cells, 16 hours with drug; read-out: EC50 (nM) Range

| SMILES | EC50 |
| --- | --- |
| CC(=O)N1N=C(c2cc(F)ccc2F)S[C@@]12c1cc(F)ccc1NC[C@@H]2CCN (single isomer, unassigned) [compound 2901] | ≤ 500 nM |

Same assay, conditions: Homo sapiens, HCT-116; table of Example 2001; HCT116 cells, 16 hours with drug; read-out: EC50 (nM) Range

| SMILES | EC50 |
| --- | --- |
| NCC[C@H]1COc2ccccc2[C@]12SC(c1cc(F)ccc1F)=NN2C(=O)CF [compound 2001] | ≤ 500 nM |
